Nine compounds from patent US9815790B2, “Chemically modified quinoline and quinolone derivatives useful as CB-1 inverse agonists” (Janssen Pharmaceutica NV, priority 2015, dated 2017) can be followed below.

Test [1] addresses CB-1 receptor (Human Cannabinoid receptor 1) (Homo sapiens (Human), UniProt P21554). The test is described as follows: cAMP HTRF assay, CB-1 inverse agonism in stably transfected HEK-293 cells. In kind it is cell-based. The note with it: 250 nM Forskolin, mean where tested more than once, read-out: CB1 EC50. From the text: (§1) CB1 and CB2 receptors are Gi-coupled GPCR. Activation of CB1 and CB2 receptors results in a decrease in cAMP production. An inverse agonist of the CB1 or CB2 receptor results in the opposite effect, an increase of cAMP production. The principle of this assay is based on HTRF® technology (Homogeneous Time-Resolved Fluorescence). The method is a competitive immunoassay between native cAMP produced by cells and the cAMP labeled with the fluorophore d2. The tracer binding is quantified by a Mab anti-cAMP labeled with Eu3+TBP-NHS Cryptate (supplied as part of the assay kit). The specific signal (i.e. energy transfer) is inversely proportional to the concentration of cAMP in the standard or sample.
(§2) Human CB (Cannabinoid receptor 1) was stably transfected in HEK-293 cells (DiscoveRx, cat: 93-0200C1). Human CB2R (Cannabinoid receptor 2) was stably transfected in HEK-293 cells (DiscoveRx, cat: 93-0201C1). Cell cultures were maintained in media: DMEM (Invitrogen Cat#12430-054) supplemented with 10% HI FBS (Invitrogen Cat#16140-071), 1% L-glutamine (Invitrogen Cat#25030-081), 0.2 mg/mL Hygromycin B (Invitrogen Cat#10687-010), 600 μg/mL G418 (Invitrogen Cat#10131-035), and 1× Penn/Strep (Invitrogen 15140-122). After cell expansion, aliquots were cryo-stored in media containing 5% DMSO (Pierce Cat#20684).
(§3) One day prior to experiments media was warmed to 37° C. and the cryo-stored cells were thawed in a 37° C. water bath. The cells were then added to media (10× volume) and the mixture was centrifuged at 1000 RPM for 5 min. The supernate was removed and the cells were re-suspended in media. A sample of the cell suspension was evaluated on a Cedex XS automated cell counter (Innovatis Systems) to determine viable cells/mL. Additional media was added to the cells to achieve a final cell density of 4E5 cells/mL. The cells were then plated into 384 well PDL white solid bottom plates (Greiner, Cat#781945) at 20 μL per well using a Multidrop (Thermo Scientific). Cells were removed from Row P (location of cAMP standards). Two columns of cells were plated into a clear bottom 384 well PDL coated plate (Greiner, Cat#781944) to view confluence the day of the assay. The cell plates were lidded and stored for 15 minutes in a hood, then transferred to an incubator (37° C., 5% CO2, 95% humidity) overnight.
(§4) Test compounds were solubilized in DMSO at 10 mM or for pegylated compounds 4 or 1 mM. DMSO was added to all wells of 384 well V bottom polystyrene plate (Greiner, Cat#781280) except to columns 1 and 13, rows O and P and wells M13-M23 and N13-N23. Test compounds (60 μL, 10 mM or 4 mM or 1 mM) were added to Column 1 and 13 (A1 through N1 and A13 through L13). Test compounds were serially diluted ⅓ by transferring and mixing 20 μL sample with 40 μL DMSO.
(§5) DMSO (40 μL) was added to wells of 384 well V bottom polystyrene plate: O2 through O11, M14 through M23, N14 through N23, and O14 through O23. AM630 (also known as [6-iodo-2-methyl-1-[2-(4-morpholinyl)ethyl]-1H-indol-3-yl](4-methoxyphenyl)-methanone, Cayman Chemical, Cat#10006974) (60 μL, 10 mM) was added to 01; and 1-(2,4-dichlorophenyl)-7-[(4-fluorophenyl)methylene]-4,5,6,7-tetrahydro-N-1-piperidinyl-1H-indazole-3-carboxamide (60 μL, 10 mM) was added to N13. The control was serially diluted ⅓ by transferring and mixing 20 μL sample with 40 μL DMSO. This process resulted 11 doses per control, 10 mM to 0.17 μM.
(§6) Cells plated the day prior to the assay in clear bottom plates were viewed on an inverse microscope to ensure confluency in the range of 60-75%. […]
For orientation: Time-resolved FRET reads energy transfer from a long-lived donor to a nearby acceptor.

Test [2] has as its target CB-2 receptor (Human CB2R, Cannabinoid receptor 2) (Homo sapiens (Human), UniProt P34972). Kind of test: cAMP HTRF assay, CB-2 in stably transfected HEK-293 cells. The note with it: 250 nM Forskolin, mean where tested more than once, read-out: CB2 EC50. Type of test: cell-based.
Source text: as §1, §2, §3, §4, §5, §6

As usually defined, the EC50 is the concentration that produces a half-maximal response.

Molecules are shown by their SMILES. A value given as a limit tells only on which side of the number the result lay.

CB-2 receptor (Human CB2R, Cannabinoid receptor 2), sequence (P34972 whole entry): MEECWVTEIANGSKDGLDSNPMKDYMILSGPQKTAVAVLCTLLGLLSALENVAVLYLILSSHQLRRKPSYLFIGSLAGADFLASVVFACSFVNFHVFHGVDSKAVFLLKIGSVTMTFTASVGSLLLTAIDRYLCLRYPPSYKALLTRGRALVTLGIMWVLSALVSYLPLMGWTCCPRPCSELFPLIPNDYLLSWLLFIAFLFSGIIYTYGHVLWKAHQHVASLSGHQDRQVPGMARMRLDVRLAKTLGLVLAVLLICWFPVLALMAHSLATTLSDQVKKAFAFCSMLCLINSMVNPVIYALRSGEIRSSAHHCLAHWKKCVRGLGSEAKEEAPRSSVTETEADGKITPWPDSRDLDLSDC
CB-1 receptor (Human Cannabinoid receptor 1), sequence (P21554 whole entry): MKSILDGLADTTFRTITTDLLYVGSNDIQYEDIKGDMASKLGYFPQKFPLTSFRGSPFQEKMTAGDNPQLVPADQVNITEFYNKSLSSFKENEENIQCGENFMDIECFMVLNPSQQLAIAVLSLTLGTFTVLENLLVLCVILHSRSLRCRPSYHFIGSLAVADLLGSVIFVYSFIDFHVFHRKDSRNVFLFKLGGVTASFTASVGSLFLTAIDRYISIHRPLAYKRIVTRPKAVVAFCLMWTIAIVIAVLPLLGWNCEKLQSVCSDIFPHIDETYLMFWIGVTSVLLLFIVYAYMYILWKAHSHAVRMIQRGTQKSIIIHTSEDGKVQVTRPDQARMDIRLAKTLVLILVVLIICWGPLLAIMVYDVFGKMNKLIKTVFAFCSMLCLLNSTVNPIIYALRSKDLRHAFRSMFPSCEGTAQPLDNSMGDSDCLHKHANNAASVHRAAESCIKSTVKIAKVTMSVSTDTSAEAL

With `COCCOCCOCCOCCOCCOCCOCCOCCOCCOCCOCCOCCNC(=O)CCCCCOc1cc(NC2CCN(S(=O)(=O)C(F)(F)F)CC2)c2cc(C(c3ccc(Cl)cc3)c3ccc(Cl)cc3)ccc2n1` [Cpd 6], the EC50 in test [1] is 19 nM; in test [2], 3000 nM.

Turning to `O=S(=O)(N1CCC(Nc2cc(OCCOCCOCCO)nc3ccc(C(c4ccc(Cl)cc4)c4ccc(Cl)cc4)cc23)CC1)C(F)(F)F` [Cpd 8], the EC50 was 52 nM in test [1] and more than 10000 nM in test [2].

With `O=S(=O)(N1CCC(Nc2cc(OCCOCCOCCOCCOCCOCCO)nc3ccc(C(c4ccc(Cl)cc4)c4ccc(Cl)cc4)cc23)CC1)C(F)(F)F` [Cpd 9], the results for the EC50 in test [1] and in test [2] were 150 nM and more than 10000 nM, respectively.

`O=S(=O)(N1CCC(Nc2cc(OCCOCCOCCOCCOCCOCCOc3ccc(CO)cc3)nc3ccc(C(c4ccc(Cl)cc4)c4ccc(Cl)cc4)cc23)CC1)C(F)(F)F` [Cpd 11]: the EC50 in test [1] turned out to be 61 nM; in test [2], 3110 nM.

In the case of `NNC(=O)CCOCCOCCOCCOCCOCCOCCOCCOCCOCCOCCOCCOCCNC(=O)OCCOCCOCCOc1cc(NC2CCN(S(=O)(=O)C(F)(F)F)CC2)c2cc(C(c3ccc(Cl)cc3)c3ccc(Cl)cc3)ccc2n1` [Cpd 12], the EC50 in test [1] came out at 94 nM; in test [2], 5400 nM.

Regarding `COCCOCCOCCOCCOCCOCCOCCOCCOCCOCCOCCOCCNC(=O)OCc1ccc(OCCOCCOCCOCCOCCOCCOc2cc(NC3CCN(S(=O)(=O)C(F)(F)F)CC3)c3cc(C(c4ccc(Cl)cc4)c4ccc(Cl)cc4)ccc3n2)cc1` [Cpd 13], the EC50 in test [1] is 240 nM; in test [2], 4060 nM.

As to `O=C(O)CCOCCOCCOCCOCCOCCOCCOCCOCCOCCOCCOCCOCCOc1cc(C(c2ccc(Cl)cc2)c2ccc(Cl)cc2)cc2c(NC3CCN(S(=O)(=O)C(F)(F)F)CC3)ccnc12` [Cpd 17], the EC50 in test [1] turned out to be 77 nM; in test [2], 740 nM.

With `COCCOCCOc1ccc(Nc2cc(=O)[nH]c3ccc(C(c4ccc(Cl)cc4)c4ccc(Cl)cc4)cc23)cc1` [Cpd 20, 6-[bis(4-chlorophenyl)methyl]-4-([4-[2-(2-methoxyethoxy)ethoxy]phenyl]amino)quinolin-2-ol], the EC50 in test [1] is 47 nM; in test [2] it was 3300 nM.

For the compound `COCCOCCOCCOCCn1c(=O)cc(NC2CCN(S(=O)(=O)C(F)(F)F)CC2)c2cc(C(c3ccc(Cl)cc3)c3ccc(Cl)cc3)ccc21` [Cpd 21], the half-maximal effective concentration (EC50) is 390 nM in test [1] and more than 10000 nM in test [2].
